Results taken from the supplement of paper PMC10307832.

Legend:
Assay in all cases: relative viability (nuclei count vs DMSO), 5 days (fraction); higher = more cells survive
XMD13-2 + AZD7762 = compound: C1CC1C(=O)NC2=NNC3=C2C=CC(=C3)C4=CC(=CC=C4)C(=O)NC5CC5 [XMD13-2] + NC(=O)Nc1cc(-c2cccc(F)c2)sc1C(=O)N[C@H]1CCCNC1 [AZD7762] (partner 0.2 µM)
Method in brief: (§1)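 Relative viability was taken as the ratio of nuclei in treated wells to nuclei in vehicle wells. Lung cancer cell lines in 1536-well plates received compounds by pin tool one day after seeding, either one drug alone or a fixed anchor-drug dose plus five library-drug doses (not always all listed) in √10 steps. Nuclei were counted on 4× images after 5 days of treatment, and values are medians of duplicate plates.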

ALW-II-49-7 + Foretinib = compound: Cc1ccc(C(=O)Nc2cccc(C(F)(F)F)c2)cc1Nc1cncc(C(N)=O)c1 [ALW-II-49-7] + COc1cc2c(Oc3ccc(NC(=O)C4(C(=O)Nc5ccc(F)cc5)CC4)cc3F)ccnc2cc1OCCCN1CCOCC1 [Foretinib] (partner 0.25 µM)
Method in brief: as §1

ALW-II-49-7 + Linsitinib = compound: Cc1ccc(C(=O)Nc2cccc(C(F)(F)F)c2)cc1Nc1cncc(C(N)=O)c1 [ALW-II-49-7] + C[C@]1(O)C[C@@H](c2nc(-c3ccc4ccc(-c5ccccc5)nc4c3)c3c(N)nccn32)C1 [Linsitinib] (partner 1 µM)
Method in brief: as §1

Dasatinib + Pictilisib = compound: Cc1nc(Nc2ncc(C(=O)Nc3c(C)cccc3Cl)s2)cc(N2CCN(CCO)CC2)n1 [Dasatinib] + CS(=O)(=O)N1CCN(Cc2cc3nc(-c4cccc5[nH]ncc45)nc(N4CCOCC4)c3s2)CC1 [Pictilisib] (partner 1 µM)
Method in brief: as §1

Row | Cell Line | relative viability (XMD13-2 + AZD7762; first compound 0.05 µM) | relative viability (XMD13-2 + AZD7762; first compound 0.1581 µM) | relative viability (XMD13-2 + AZD7762; first compound 0.5 µM) | relative viability (XMD13-2 + AZD7762; first compound 1.581 µM) | relative viability (XMD13-2 + AZD7762; first compound 5 µM) | relative viability (ALW-II-49-7 + Foretinib; first compound 0.08 µM) | relative viability (ALW-II-49-7 + Foretinib; first compound 0.253 µM) | relative viability (ALW-II-49-7 + Foretinib; first compound 0.8 µM) | relative viability (ALW-II-49-7 + Foretinib; first compound 2.53 µM) | relative viability (ALW-II-49-7 + Foretinib; first compound 8 µM) | relative viability (ALW-II-49-7 + Linsitinib; first compound 0.08 µM) | relative viability (ALW-II-49-7 + Linsitinib; first compound 0.253 µM) | relative viability (ALW-II-49-7 + Linsitinib; first compound 0.8 µM) | relative viability (ALW-II-49-7 + Linsitinib; first compound 2.53 µM) | relative viability (ALW-II-49-7 + Linsitinib; first compound 8 µM) | relative viability (Dasatinib + Pictilisib; first compound 0.005 µM) | relative viability (Dasatinib + Pictilisib; first compound 0.01581 µM) | relative viability (Dasatinib + Pictilisib; first compound 0.05 µM) | relative viability (Dasatinib + Pictilisib; first compound 0.1581 µM) | relative viability (Dasatinib + Pictilisib; first compound 0.5 µM)
1 | LC-2-ad | 0.996 | 0.94 | 0.896 | 0.928 | 0.826 | 0.863 | 0.881 | 0.929 | 0.559 | 0.905 | 0.834 | 0.86 | 0.764 | 0.86 | 0.836 | 0.397 | 0.346 | 0.237 | 0.128 | 0.0796
2 | LCLC-97TM1 | 0.249 | 0.26 | 0.231 | – | 0.254 | 0.869 | 0.894 | 1.06 | 0.939 | 0.933 | 0.19 | 0.171 | 0.174 | 0.176 | 0.155 | 0.206 | 0.206 | 0.192 | 0.18 | 0.12
3 | LCLC-103H | 0.774 | 0.778 | 0.768 | 0.818 | 0.85 | 0.707 | 0.832 | 0.926 | 0.735 | 0.77 | 0.994 | 1.15 | 1.16 | 1.15 | 1.05 | 0.665 | 0.514 | 0.515 | 0.286 | 0.17
4 | LK-2 | 0.626 | 0.499 | 0.476 | 0.431 | 0.689 | – | 0.884 | 1.27 | 0.958 | 1.31 | 0.546 | 0.722 | 0.399 | – | 0.654 | 0.653 | 0.36 | 0.317 | 0.2 | 0.21
5 | LOU-NH91 | 0.938 | 0.767 | 0.78 | 0.725 | 0.793 | 0.912 | 0.945 | 0.921 | 0.879 | 0.944 | 0.928 | 0.97 | 0.93 | 0.528 | 0.977 | 0.497 | 0.492 | 0.401 | 0.439 | 0.341
6 | LU99A | 0.378 | 0.501 | 0.442 | 0.327 | 0.312 | 0.82 | 0.936 | 0.92 | 0.867 | 0.768 | 0.569 | 0.464 | 0.573 | 0.421 | 0.589 | 0.332 | 0.347 | 0.293 | 0.25 | 0.194
7 | LXF-289 | 1.14 | 1.25 | 1.2 | 1.29 | 1.17 | 0.98 | 1.05 | 1 | 1.07 | 1.04 | 0.935 | 0.958 | 1.04 | 1.1 | 1.09 | 0.659 | 0.472 | 0.298 | 0.111 | 0.076
8 | NCI-H23 | 0.199 | 0.256 | 0.231 | 0.209 | 0.296 | 0.923 | 1.01 | 1.06 | 0.993 | 1.03 | 0.56 | 0.55 | 0.68 | 0.591 | 0.618 | 0.335 | 0.26 | 0.376 | 0.28 | 0.181
9 | NCI-H322M | 0.461 | 0.602 | 0.543 | – | 0.653 | 0.825 | 0.996 | 0.908 | 0.771 | 0.962 | 0.846 | 0.902 | 0.909 | 0.836 | 0.673 | 0.433 | 0.408 | 0.37 | 0.245 | 0.171
10 | NCI-H358 | 0.633 | 0.537 | 0.515 | 0.442 | 0.414 | 0.691 | 0.658 | 0.575 | 0.809 | 0.689 | 0.801 | 0.661 | 0.816 | 0.725 | 0.742 | 0.383 | 0.232 | 0.287 | 0.206 | 0.208
11 | NCI-H441 | 1.17 | 1.29 | 1.18 | 1.14 | 1.04 | 1.02 | 1.01 | 1.14 | 1.22 | 0.854 | 0.529 | 0.61 | 0.432 | 0.496 | 0.508 | 0.555 | 0.437 | 0.381 | 0.211 | 0.145
12 | NCI-H460 | 0.708 | 0.751 | 0.633 | 0.66 | 0.683 | 1.09 | 1.05 | 0.84 | 1.02 | 0.899 | 0.464 | 0.667 | 0.766 | 0.566 | 0.566 | 0.195 | 0.102 | 0.208 | 0.189 | 0.104
13 | NCI-H596 | 1.14 | 0.945 | 1.09 | 1.18 | 1.2 | 0.949 | 0.902 | 0.886 | 0.841 | 0.937 | 1.1 | 1.08 | 1.11 | 1.06 | 1.1 | 0.349 | 0.348 | 0.312 | 0.475 | 0.118
14 | NCI-H647 | 0.558 | 0.521 | 0.532 | 0.406 | 0.248 | 1.36 | 1.32 | 1.23 | 1.09 | 1.06 | 1.1 | 1.35 | 1.03 | 1.04 | 1.05 | 0.258 | 0.308 | 0.182 | 0.11 | 0.122
15 | NCI-H650 | 1.22 | 1.02 | 1.14 | 0.847 | 1.43 | 1.16 | 1.06 | 1.01 | 0.92 | 0.638 | 0.836 | 0.793 | 0.941 | 0.811 | 0.54 | 0.862 | 0.794 | 0.898 | 0.497 | 0.345
16 | NCI-H727 | 0.807 | 0.665 | 0.583 | 0.505 | 0.776 | 1.17 | 0.832 | 1.1 | 0.912 | 1.08 | 0.303 | 0.331 | 0.316 | 0.283 | 0.37 | 0.33 | 0.267 | 0.258 | 0.209 | 0.176
